In patent US9221800B2, “Isoxazole treatments for diabetes” (The Board of Regents of the University of Texas System, priority 2011, dated 2015):

Key:
Format in all cases: cell-based, mouse
MIN6 cells = assay: Immunoblotting of MIN6 whole cell lysates; conditions: MIN6 pretreated with inhibitors 16 h (FIG. 4A); nifedipine in combination with the chelating agent BAPTA
Experimental: FIGS. 2[…]-1) activates insulin expression and improves β cell function in MIN6 cells. (FIG. 2A) Dose-response relationship of MIN6 cells treated with 5-80 μM Isx for 24 h or DMSO (0.08%-similar to the highest concentration of Isx). Whole cell lysates (40 μg) were subjected to immunoblotting using antibodies against BETA2NeuroD1, MafA, PDX-1, pERK1/2 (pT183/[…]), acetylated histones […] and ACH3K9 and total histone H3. (FIG. 2B) Quantitative RT-PCR of murine insulin1 and insulin2 gene expression in MIN6 cells treated with Isx for 24 h as in FIG. 2A. […] (FIG. 2D) Insulin content measured by ELISA in MIN6 cells treated with Isx for 24 or 48 h. (FIG. 2E) GSIS induced by glucose, amino acids (AA) and Exendin-4 (Ex-4) singly or in combination in MIN6 cells pretreated with Isx for 48 h. FIGS. 4[…]-1) is a HAT activator. (FIG. 4A) Immunoblots of acetylated histones in MIN6 cells pretreated with the indicated inhibitors for 16 h and then treated with vehicle or Isx. (FIGS. 4B-C) HDAC (FIG. 4B) and HAT (FIG. 4C) activities in 50 μg of nuclear extract protein from MIN6 cells treated with Isx or DMSO for 24 h. Trichostatin A (TSA; 2 μM) was added at as a positive control. HeLa nuclear extract also was included as a positive control. […] Statistical analysis was performed using Student's t test as in FIGS. 1A-E. *P<0.05; **P<0.01. (FIG. 4G) Simplified view of the actions of Isx. FIG. 6. Time course of […]-1) treatment in MIN6 cells. Immunoblotting of whole cell extracts from MIN6 cells grown for 24 h in complete DMEM containing […] and treated with 20 μM Isx for from 15 min to 24 h. The control (0 min) was treated with DMSO for 24 h. MIN6 cells were cultured in DMEM (Gibco), containing 25 mM glucose, 10% fetal bovine serum, 10 mM Hepes pH 7.4, 10.2 mM L-glutamine, […] sodium pyruvate, 2.5 mM β-mercaptoethanol, 100 U/ml penicillin and 100 μg/ml streptomycin at 37° C. in 10% CO2. Human islets were obtained from the ICR Basic Science Islet Distribution and from the University of Alabama, Birmingham Islet Resource Facility and were cultured in RPMI 1640 with 11 mM glucose for up to 1 year. The medium was changed twice weekly and the islets were subcultured when they reached 90% confluence. For Isx treatments, cells were incubated in medium containing either Isx or the equivalent volume of DMSO vehicle (0.04%). To measure GSIS, cells were placed in Krebs-Ringer bicarbonate/Hepes containing 0.1% bovine serum albumin and 2 mM glucose for 2 h, and stimulated for 15 min with 20 mM glucose, a 1× amino-acid mixture (concentrations as in DMEM), or 50 nM Exendin-4.

HAT = HAT activity in nuclear extracts of treated MIN6 cells; conditions: MIN6 cells expressing p300; 10 μM U0126
Experimental: (§1) The histone acetyl transferase and deacetylase activities were measured in 50 μg of nuclear protein using the HAT and HDAC activity colorimetric assay kits from Biovision Biotechnology according to manufacturer's recommendations.

HDAC = HDAC activity in nuclear extracts of treated MIN6 cells; conditions: 24 h treatment, TSA 2 μM positive control (FIG. 4B)
Experimental: as §1

In the case of `O=C(NOC[C@H](O)CO)c1ccc(F)c(F)c1Nc1ccc(I)cc1F` [PD325901, reference compound], the “effect on Isx-induced acetylation of H4” value (MIN6 cells) is reported as “inhibited” and the “effect on acetylation of H3 on lysines 9 and 14 induced by Isx” value (from here on “effect on acetylation of H3”) (MIN6 cells) is reported as “little effect”.

In the case of `N#CC(=C(/N)Sc1ccccc1N)/C(C#N)=C(\N)Sc1ccccc1N` [U0126, reference compound], the “effect on Isx-induced acetylation of H4” value (MIN6 cells) is reported as “inhibited”, the “effect on acetylation of H3” value (MIN6 cells) is reported as “little effect” and the “effect on the Isx-induced increase in HAT activity” value (HAT) is reported as “inhibited”.

For `COC[C@H]1OC(=O)c2coc3c2[C@@]1(C)C1=C(C3=O)[C@@H]2CCC(=O)[C@@]2(C)C[C@H]1OC(C)=O` [wortmannin, reference compound], the “effect on Isx-induced acetylation of H4” value (MIN6 cells) was “no effect” and the “effect on acetylation of H3” value (MIN6 cells) was “no effect”.

For trichostatin A [reference compound], the “HDAC activity in MIN6 cells” value (HDAC) was “inhibited”.
